Data as given in patent US11953435B2, “Zinc-responsive fluorophores” (Northwestern University, priority 2019, dated 2024).
Entries after “also recorded” stand apart in the source; their conditions may differ. Where two headings read alike, the source gives them in different places.

Columns and labels:
[1] = system: MII egg; assay: Confocal imaging of zinc in live MII eggs; type: cell-based, mouse
Excerpt: [formula] [formula] [formula] where r(t) is the anisotropy, P(t) is the polarization, Ivv and Ivh are intensities with polarization in the vertical plane and the excitation in the vertical and horizontal planes respectively, Ihv and Ihh are intensities with polarization in the horizontal plane and the excitation in the vertical and horizontal planes respectively, and G is a g-factor that corrects for instrument sensitivity in the horizontal and vertical planes. Metal content of NMR samples. Inductively coupled plasma mass spectrometry (ICP-MS) was performed on a Thermo iCAP Q ICP-MS. 1 mg/mL of ZincBY-1 or ZincBY-4 in acetonitrile-d3 or acetonitrile-d3 only was evaporated overnight at 70° C. 150 μL of HNO3 was added and the samples were digested overnight at 70° C. Samples were diluted to a final nitric acid concentration of 3%. ICP-MS was operated in collision cell mode to reduce polyatomic interferences. An internal standard comprising ^7Li, ^89Y, and ^115In was used. Each sample was acquired using one survey run (10 sweeps) and three main (peak jumping) runs (100 sweeps). Data was fit to a standard curve using a standard containing ^45Sc, […], ^51V, ^52Cr, ^55Mn, ^56Fe, ^59Co, ^58Ni, ^63Cu, and ^64Zn from 5 ppb to 1000 ppb. Only ^56Fe and ^64Zn were detected in the samples above background levels. Computational Analysis of ZincBY-1 and ZincBY-4. All density functional theory (DFT) calculations were performed using version 4.0.1 of the ORCA electronic structure package (Ref. B6; incorporated by reference in its entirety). Guided by the results of earlier studies on BODIPY derivatives (Ref. B7; incorporated by reference in its entirety), the PBE0 functional (Refs. B8-B10; incorporated by reference in their entireties) was used to optimize the geometries of all molecules studied, while time dependent DFT (TD-DFT) calculations and charge analysis through the CHarges from ELectrostatic Potentials using a Grid-based method (CHELPG) (Ref. B11; incorporated by reference in its entirety) were performed with the oB97-XD3 functional (Ref. B12; incorporated by reference in its entirety). All calculations utilized the def2-TZVP basis set (Ref B13; incorporated by reference in its entirety) with the resolution of the identity approximation coupled with the chain of spheres exchange method (RIJCOSX) (Refs. B14-B16; incorporated by reference in their entireties), using the def2/J auxiliary basis (Ref B17; incorporated by reference in its entirety). Implicit solvation effects were included through the conductor like polarizable continuum model (CPCM) (Ref B18; incorporated by reference in its entirety). Calculated spectra were broadened by Gaussians of width 0.2 eV, and red shifted by 0.64 eV to better match the experimental spectra per Momeni and Brown (Ref. B7; incorporated by reference in its entirety). Animals and Egg Collection Mouse. To collect MII-arrested eggs, female mice of at least 5 weeks in age were injected with 5 IU pregnant mare serum gonadotropin (PMSG) followed by 5 IU human chorionic gonadotropin (hCG) 48 hours later. Intact cumulus-oocyte complexes (COCs) were isolated from the oviducts 15 hours after the administration of hCG. Cumulus cells were denuded using 0.3% (w/v) hyaluronidase. Animals were treated in accordance with the US National Institutes of Health Guide for the Care and Use of Laboratory Animals. Food and water were given ad libitum. The Northwestern University Institutional Animal Care and Use Committee approved all the protocols. C. Elegans. Wildtype strain Bristol N2 was used as a control strain in fluorescence microscopy experiments. EU1067: unc-119(ed3) ruIs32[unc-119(+) pie-1^promoter::GFP::H2B] III; ruIs57[unc-119(+) pie-P1^promoter:GFP::tubulin] was used as a marker for cortical granules in fluorescence microscopy experiments. EU1067 was provided by the Caenorhabditis Genetics Center (CGC). […]

[2] = cited from earlier work; for Brightness (ε*Φ/1000) / Extinction Coefficient (ε) / Quantum Yield (Φ) / λAbs (max) / λEm (max): values reported in Que et al.
[3] = system: C. elegans; assay: Confocal imaging of zinc in C. elegans worms; type: in vivo
Excerpt: [formula] [formula] where r(t) is the anisotropy, P(t) is the polarization, Ivv and Ivh are intensities with polarization in the vertical plane and the excitation in the vertical and horizontal planes respectively, Ihv and Ihh are intensities with polarization in the horizontal plane and the excitation in the vertical and horizontal planes respectively, and G is a g-factor that corrects for instrument sensitivity in the horizontal and vertical planes. Metal content of NMR samples. Inductively coupled plasma mass spectrometry (ICP-MS) was performed on a Thermo iCAP Q ICP-MS. 1 mg/mL of ZincBY-1 or ZincBY-4 in acetonitrile-d3 or acetonitrile-d3 only was evaporated overnight at 70° C. 150 μL of HNO3 was added and the samples were digested overnight at 70° C. Samples were diluted to a final nitric acid concentration of 3%. […] Only ^56Fe and ^64Zn were detected in the samples above background levels. […] Calculated spectra were broadened by Gaussians of width 0.2 eV, and red shifted by 0.64 eV to better match the experimental spectra per Momeni and Brown (Ref. B7; incorporated by reference in its entirety). […] Wildtype strain Bristol N2 was used as a control strain in fluorescence microscopy experiments. […] III; ruIs57[unc-119(+) pie-P1^promoter:GFP::tubulin] was used as a marker for cortical granules in fluorescence microscopy experiments. […]

COc1ccc2n1[B-](F)(F)[N+]1=C(N(CCN(Cc3ccccn3)Cc3ccccn3)Cc3ccccn3)C=CC1=C2c1c(C)cc(C)cc1C [ZincBY-1, reference compound]
excitation at 488 nm in the MII egg ([1]; 50 nM probe): Only ZincBY-4 was readily excited at 488 nm
excitation at 552 nm in the MII egg ([1]; 50 nM probe): both probes were excitable at 552 nm
Brightness (ε*Φ/1000) ([2]; Apo): 0.57(6) M^−1cm^−1
Extinction Coefficient (ε) ([2]; Apo): 1.1(0.05) × 10^4 M^−1cm^−1
Quantum Yield (Φ) ([2]; Apo): 0.052(3)
λAbs (max) ([2]; Apo): 533 nm
λEm (max) ([2]; Apo): 560 nm
Brightness (ε*Φ/1000) ([2]; Zn-bound): 2.6(5) M^−1cm^−1
Extinction Coefficient (ε) ([2]; Zn-bound): 2.0(3) × 10^4 M^−1cm^−1
Quantum Yield (Φ) ([2]; Zn-bound): 0.13(2)
λAbs (max) ([2]; Zn-bound): 533 nm
λEm (max) ([2]; Zn-bound): 543 nm
Stokes shift ([2]; literature (Ref. A18)): 11 nm

CC(=O)NCCOc1ccc2n1[B-](F)(F)[N+]1=C(N(CCN(Cc3ccccn3)Cc3ccccn3)Cc3ccccn3)C=CC1=C2c1c(C)cc(C)cc1C [ZincBY-4, N-(2-((7-((2-(bis(pyridin-2-ylmethyl)amino)ethyl)(pyridin-2-ylmethyl)amino)-5,5-difluoro-10-mesityl-5H-5λ4,6λ4-dipyrrolo[1,2-c:2′,1′-f][1,3,2]diazaborinin-3-yl)oxy)ethyl)acetamide]
excitation at 488 nm in the MII egg ([1]; 50 nM probe): only ZincBY-4 exhibits a strong fluorescence intensity upon excitation at 488 nm; also recorded: Only ZincBY-4 was readily excited at 488 nm
excitation at 552 nm in the MII egg ([1]; 50 nM probe): both probes were excitable at 552 nm
region of fluorescence emission in MII eggs ([1]; 50 nM probe, 488 nm excitation): 575-750 nm
effect of TPEN on fluorescence in stained MII eggs ([1]; TPEN 5 μM): loss of fluorescence signal in the vesicle region; also recorded: loss in fluorescence was observed
spectral overlap with TubulinTracker Green in the MII egg ([1]; single excitation at 488 nm): virtually no ZincBY-4 emission detected in the 495-530 nm emission channel; also recorded: virtually no spectral overlap between the two probes
fluorescence change on chemical activation (ionomycin) of MII eggs ([1]; time lapse imaging, ionomycin 5 μM): increase in fluorescence intensity outside the egg while fluorescence intensity is lost in the periphery region; also recorded: both loss of zinc from the zinc granule region and increase of zinc outside the cell without the need of a second probe was observed
usable working concentration ([1]; where other probes require micromolar amounts): 50 nM
Stokes shift in cells ([1]; within cells): ~100 nm
fluorescence pattern in stained worms ([3]; ZincBY-4 stained worms): pattern of increasing fluorescence intensity as oocytes progress through the gonad
spectral overlap with GFP in C. elegans ([3]; single excitation at 488 nm): small amount of ZincBY-4 emission detected in the 495-530 nm emission channel; also recorded: very little overlap of ZincBY-4 in the GFP detection channel
